Experiments:
[1] = test system: 3T3 mouse fibroblasts; type: cell-based
[2] = test system: Caco-2 cells; type: cell-based, Human
[3] = 14-day daily gavage toxicity study, body and organ weights; settings: for Feed efficacy (Body weight gain/Food Consumption) / Final body weight: 14 days

Row | Compound | BrdU bioassay IC50 (95% Confidence Interval) [1] | MTT bioassay IC50 (95% Confidence Interval) [2] | Food Consumption during the 14 days ([3]; 25 mg/kg bw) | Feed efficacy (Body weight gain/Food Consumption) ([3]; 25 mg/kg bw) | Final body weight ([3]; 25 mg/kg bw) | Food Consumption during the 14 days ([3]; 100 mg/kg bw) | Feed efficacy (Body weight gain/Food Consumption) ([3]; 100 mg/kg bw) | Final body weight ([3]; 100 mg/kg bw) | Food Consumption during the 14 days ([3]; 2 mg/kg bw) | Feed efficacy (Body weight gain/Food Consumption) ([3]; 2 mg/kg bw)
1 | CC1=C[C@H]2O[C@@H]3[C@H](O)C[C@](C)([C@@]2(CO)[C@H](O)C1=O)[C@]31CO1 [3-epi-DON] | 281 (156, 505) μg/mL | 146 (100, 212) μg/mL | 85.860 g | 0.0475 | 21.390 g | 85.760 g | 0.0413 | 21.680 g | – | –
2 | CC1=C[C@H]2O[C@@H]3[C@H](O)C[C@](C)([C@@]2(CO)[C@H](O)C1=O)[C@]31CO1 [DON, Deoxynivalenol, reference compound] | 0.238 (0.162, 0.349) μg/mL | 0.409 (0.324, 0.518) μg/mL | – | – | – | – | – | – | 81.090 g | 0.0252

Source: patent publication US20150139959A1 (priority 2009, published 2015)
